≈ marks a conversion by molar mass, not a printed value. Read-outs that look alike come from different tables or passages of the source.
How the values were obtained:
[1] = target: T1, S. aureus DNA gyrase (Staphylococcus aureus, UniProt P20831); experiment: biochemical; format: biochemical; conditions: for LE DNA Gyrase S. aureus: LE = (1.37/HA) × pIC50; for IC50: fluorescence plate supercoiling assay, mean of two to four measurements
T1 construct: purchased Inspiralis (Norwich, UK)
Method: (§1) A Gyrase Supercoiling High Throughput Plate assay kit, purchased from Inspiralis (Norwich. UK) was used to determine IC50 values of compounds on S. aureus and E. coli. […] Biotinylated oligonucleotide in wash buffer was immobilized onto the wells, and the excess oligonucleotide was washed off with wash buffer and ultrapure water. […] The reactions were stopped by adding the TF buffer (50 mM NaOAc (pH 4.7), 50 mM NaCl, and 50 mM MgCl2) to allow the triplex formation (biotin-oligonucleotide-plasmid) for additional 30 min. Afterward, the unbound plasmid was washed off using TF buffer, and the solution of Promega Diamond dye in T10 buffer (10 mM Tris-HCl (pH 8.0), 1 mM EDTA) was added. […] IC50 value represents the mean of two to four independent measurements.

[2] = target: T2, E. coli DNA gyrase (Escherichia coli, UniProt P0AES4); experiment: Gyrase Supercoiling High Throughput Plate assay, E. coli; format: biochemical; conditions: for LE DNA Gyrase E. coli: LE = (1.37/HA) × pIC50
T2 construct: purchased Inspiralis (Norwich, UK)
Method: as §1

[3] = target: T3, E. coli Topo IV (Escherichia coli, UniProt P0AFI2); experiment: Topo IV Relaxation High Throughput Plate assay, E. coli; format: biochemical; conditions: for LE Topo IV E. coli: LE = (1.37/HA) × pIC50
T3 construct: purchased Inspiralis (Norwich, UK)
Method: A Topo IV Relaxation High Throughput Plate assay kit, purchased from Inspiralis (Norwich. UK) was used to determine IC50 values of compounds on S. aureus and E. coli. […] Biotinylated oligonucleotide in wash buffer was immobilized onto the wells, and the excess oligonucleotide was washed off with wash buffer and ultrapure water. 1.5 U of S. aureus or E. coli […] enzyme was incubated together with 0.75 μg of supercoiled pNO1 plasmid as a substrate in the presence of 3 μL inhibitor solution in 10% DMSO and 0.008% Tween 20 at 37 °C for 30 min in a final reaction volume of 30 μL in dilution buffer (50 mM Tris-HCl (pH 7.5), 1 mM DTT, 1 mM EDTA, 40% (w/v) glycerol for S. aureus and 40 mM HEPES, KOH (pH 7.6), 100 mM potassium glutamate, 1 mM DTT, 1 mM EDTA, and 40% (v/v) glycerol for E. coli). The reactions were stopped by adding the TF buffer (50 mM NaOAc (pH 4.7), 50 mM NaCl, and 50 mM MgCl2) to allow the triplex formation (biotin-oligonucleotide-plasmid) for additional 30 min. Afterward, the unbound plasmid was washed off using TF buffer, and the solution of Promega Diamond dye in T10 buffer (10 mM Tris-HCl (pH 8.0), 1 mM EDTA) was added. […] IC50 value represents the mean of two to four independent measurements.

[4] = test system: S. aureus (ATCC 29213); experiment: MIC broth microdilution, S. aureus ATCC 29213; format: cell-based; conditions: Staphylococcus aureus, ATCC29213
Method: (§2) Antimicrobial testing was carried out by the broth microdilution method in 96-well plate format following the Clinical and Laboratory Standards Institute (CLSI) guidelines and European Committee on Antimicrobial Susceptibility Testing (EUCAST) recommendations. Bacterial suspension of specific bacterial strain equivalent to 0.5 McFarland turbidity standard was diluted with cation-adjusted Mueller Hinton broth with TES (Thermo Fisher Diagnostic, Landsmeer, The Netherlands), to obtain a final inoculum of 10^5 CFU/mL. Compounds dissolved in DMSO and inoculum were mixed together and incubated for 18–20 h at 35 °C. Suspensions of Mycobacterium sp. were prepared into a tube of Middelbrook 7H9 broth supplemented with 5% OADC (Thermo Scientific, Trek Diagnostic Systems, West Sussex, UK) and incubated for at least 10 days. After incubation the minimal inhibitory concentration (MIC) values were determined by visual inspection as the lowest dilution of compounds showing no turbidity. Tetracycline was used as a positive control on every assay plate.

[5] = test system: MRSA (QA-11.7); experiment: MIC broth microdilution, MRSA QA-11.7; format: cell-based, methicillin-resistant S. aureus; conditions: Staphylococcus aureus, 20 h, read-out: MIC MRSA (QA-11.7)
Method: as §2

[6] = test system: E. coli (ATCC 25922); experiment: MIC broth microdilution, E. coli ATCC 25922; format: cell-based; conditions: Escherichia coli, ATCC25922
Method: as §2

[7] = test system: E. coli (QA-11.8); experiment: MIC broth microdilution, E. coli QA-11.8; format: cell-based; conditions: Escherichia coli, 20 h; read-out: MIC E. coli (QA-11.8)
Method: as §2

[8] = test system: E. coli (QA-11.7); experiment: MIC broth microdilution, E. coli QA-11.7; format: cell-based; conditions: Escherichia coli, 20 h; multi-resistant isolate (ampicillin, azithromycin, cefotaxime, ertapenem, imipenem and others); read-out: MIC E. coli (QA-11.7)
Method: as §2

[9] = test system: E. coli (QA-11.3); experiment: MIC broth microdilution, E. coli QA-11.3; format: cell-based; conditions: Escherichia coli, 20 h; read-out: MIC E. coli (QA-11.3)
Method: as §2

[10] = test system: S. alachua RDK 030c (QA-1482/04); experiment: MIC broth microdilution, S. alachua; format: cell-based; conditions: Salmonella; read-out: MIC S. alachua RDK 030c (QA-1482/04)
Method: as §2

[11] = test system: C. jejuni RDK 135 (ATCC 33560); experiment: MIC broth microdilution, C. jejuni; format: cell-based; conditions: Campylobacter jejuni, ATCC33560; read-out: MIC C. jejuni RDK 135 (ATCC 33560)
Method: as §2

[12] = test system: M. smegmatis; experiment: MIC, M. smegmatis; format: cell-based, Mycobacterium smegmatis; conditions: Mycolicibacterium smegmatis; read-out: MIC M. smegmatis
Method: as §2

[13] = S. aureus ATCC 29213, read-out: S. aureus MIC (converted)
[14] = read-out: MIC S. aureus (ATCC 29213)
[15] = E. coli ATCC 25922, read-out: E. coli MIC (converted)
[16] = read-out: MIC E. coli (ATCC 25922)

T1 sequence (P20831 whole entry): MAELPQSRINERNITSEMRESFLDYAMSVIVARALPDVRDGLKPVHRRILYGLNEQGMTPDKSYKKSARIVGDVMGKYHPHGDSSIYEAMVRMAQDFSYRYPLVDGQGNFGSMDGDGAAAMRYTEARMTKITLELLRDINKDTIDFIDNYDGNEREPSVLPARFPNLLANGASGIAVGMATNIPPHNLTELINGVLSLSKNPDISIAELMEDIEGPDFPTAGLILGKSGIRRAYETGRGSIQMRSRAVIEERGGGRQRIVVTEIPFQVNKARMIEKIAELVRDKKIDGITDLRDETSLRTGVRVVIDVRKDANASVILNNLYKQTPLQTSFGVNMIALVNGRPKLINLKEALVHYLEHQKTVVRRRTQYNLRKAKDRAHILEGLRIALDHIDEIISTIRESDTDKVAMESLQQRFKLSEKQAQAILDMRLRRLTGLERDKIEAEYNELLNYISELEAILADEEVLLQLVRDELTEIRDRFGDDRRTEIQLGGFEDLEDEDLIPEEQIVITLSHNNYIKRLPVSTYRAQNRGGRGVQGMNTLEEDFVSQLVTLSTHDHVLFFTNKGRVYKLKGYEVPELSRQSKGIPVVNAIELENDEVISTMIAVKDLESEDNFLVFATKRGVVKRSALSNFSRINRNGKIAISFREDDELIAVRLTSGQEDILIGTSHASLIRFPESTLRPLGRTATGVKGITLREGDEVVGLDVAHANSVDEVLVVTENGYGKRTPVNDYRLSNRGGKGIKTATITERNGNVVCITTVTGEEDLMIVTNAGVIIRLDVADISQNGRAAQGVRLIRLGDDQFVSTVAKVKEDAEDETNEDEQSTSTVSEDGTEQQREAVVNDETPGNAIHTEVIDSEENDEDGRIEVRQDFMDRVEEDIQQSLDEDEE
T1 sequence (P0A0K8 whole entry partner): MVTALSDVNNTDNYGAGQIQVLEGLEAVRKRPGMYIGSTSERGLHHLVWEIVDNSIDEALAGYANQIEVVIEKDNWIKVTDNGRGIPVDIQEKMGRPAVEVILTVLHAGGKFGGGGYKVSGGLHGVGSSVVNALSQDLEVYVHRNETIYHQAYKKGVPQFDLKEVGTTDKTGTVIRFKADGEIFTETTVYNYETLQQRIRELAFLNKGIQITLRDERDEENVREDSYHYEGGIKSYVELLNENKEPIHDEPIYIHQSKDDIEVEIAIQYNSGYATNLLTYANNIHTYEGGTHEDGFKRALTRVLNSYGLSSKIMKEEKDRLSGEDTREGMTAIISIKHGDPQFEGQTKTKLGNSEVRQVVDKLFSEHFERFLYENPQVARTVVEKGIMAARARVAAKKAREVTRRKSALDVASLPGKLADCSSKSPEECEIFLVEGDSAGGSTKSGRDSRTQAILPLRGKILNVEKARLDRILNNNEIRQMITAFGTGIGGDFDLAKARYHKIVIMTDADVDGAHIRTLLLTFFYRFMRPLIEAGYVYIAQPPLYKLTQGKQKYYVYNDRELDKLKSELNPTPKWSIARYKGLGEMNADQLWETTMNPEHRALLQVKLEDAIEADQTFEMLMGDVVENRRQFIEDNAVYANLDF
T3 sequence (P0AFI2 whole entry): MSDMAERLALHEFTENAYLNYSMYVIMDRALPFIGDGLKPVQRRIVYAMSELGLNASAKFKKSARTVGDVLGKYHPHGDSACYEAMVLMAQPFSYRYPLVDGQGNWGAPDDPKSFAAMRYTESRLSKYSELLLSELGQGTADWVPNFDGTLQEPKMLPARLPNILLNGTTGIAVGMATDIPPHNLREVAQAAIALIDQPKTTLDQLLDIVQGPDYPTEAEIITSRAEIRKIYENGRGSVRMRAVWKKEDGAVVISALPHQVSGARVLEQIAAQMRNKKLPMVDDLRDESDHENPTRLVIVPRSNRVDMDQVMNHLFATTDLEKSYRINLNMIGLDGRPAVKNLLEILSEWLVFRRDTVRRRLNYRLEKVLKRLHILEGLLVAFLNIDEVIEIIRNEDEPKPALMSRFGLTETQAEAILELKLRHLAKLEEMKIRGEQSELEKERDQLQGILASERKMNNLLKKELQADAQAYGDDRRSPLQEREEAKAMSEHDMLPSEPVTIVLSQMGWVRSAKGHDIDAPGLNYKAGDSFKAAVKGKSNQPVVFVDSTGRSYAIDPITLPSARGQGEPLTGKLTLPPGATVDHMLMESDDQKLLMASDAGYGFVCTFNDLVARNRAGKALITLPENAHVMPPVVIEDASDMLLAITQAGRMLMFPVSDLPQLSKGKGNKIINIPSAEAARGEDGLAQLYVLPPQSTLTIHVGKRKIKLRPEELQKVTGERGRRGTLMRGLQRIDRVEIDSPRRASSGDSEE
T3 sequence (P20083 whole entry, further chain): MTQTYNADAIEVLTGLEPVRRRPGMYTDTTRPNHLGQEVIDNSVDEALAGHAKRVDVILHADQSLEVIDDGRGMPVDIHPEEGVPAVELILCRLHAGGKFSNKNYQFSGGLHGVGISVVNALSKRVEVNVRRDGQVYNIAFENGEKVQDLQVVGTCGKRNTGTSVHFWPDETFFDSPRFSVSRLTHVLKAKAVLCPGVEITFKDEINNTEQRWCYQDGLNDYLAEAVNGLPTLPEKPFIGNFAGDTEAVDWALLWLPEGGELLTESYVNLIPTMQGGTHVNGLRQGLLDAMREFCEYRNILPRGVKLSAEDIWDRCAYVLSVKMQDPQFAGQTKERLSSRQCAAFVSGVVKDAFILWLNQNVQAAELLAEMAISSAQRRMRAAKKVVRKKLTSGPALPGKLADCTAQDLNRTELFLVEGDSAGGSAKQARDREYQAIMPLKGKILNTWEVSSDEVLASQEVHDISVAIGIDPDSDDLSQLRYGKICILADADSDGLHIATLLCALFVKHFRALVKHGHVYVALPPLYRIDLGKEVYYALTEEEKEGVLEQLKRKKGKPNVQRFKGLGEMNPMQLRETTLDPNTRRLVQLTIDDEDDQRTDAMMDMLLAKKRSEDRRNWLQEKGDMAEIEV
T2 sequence (P0AES4 whole entry): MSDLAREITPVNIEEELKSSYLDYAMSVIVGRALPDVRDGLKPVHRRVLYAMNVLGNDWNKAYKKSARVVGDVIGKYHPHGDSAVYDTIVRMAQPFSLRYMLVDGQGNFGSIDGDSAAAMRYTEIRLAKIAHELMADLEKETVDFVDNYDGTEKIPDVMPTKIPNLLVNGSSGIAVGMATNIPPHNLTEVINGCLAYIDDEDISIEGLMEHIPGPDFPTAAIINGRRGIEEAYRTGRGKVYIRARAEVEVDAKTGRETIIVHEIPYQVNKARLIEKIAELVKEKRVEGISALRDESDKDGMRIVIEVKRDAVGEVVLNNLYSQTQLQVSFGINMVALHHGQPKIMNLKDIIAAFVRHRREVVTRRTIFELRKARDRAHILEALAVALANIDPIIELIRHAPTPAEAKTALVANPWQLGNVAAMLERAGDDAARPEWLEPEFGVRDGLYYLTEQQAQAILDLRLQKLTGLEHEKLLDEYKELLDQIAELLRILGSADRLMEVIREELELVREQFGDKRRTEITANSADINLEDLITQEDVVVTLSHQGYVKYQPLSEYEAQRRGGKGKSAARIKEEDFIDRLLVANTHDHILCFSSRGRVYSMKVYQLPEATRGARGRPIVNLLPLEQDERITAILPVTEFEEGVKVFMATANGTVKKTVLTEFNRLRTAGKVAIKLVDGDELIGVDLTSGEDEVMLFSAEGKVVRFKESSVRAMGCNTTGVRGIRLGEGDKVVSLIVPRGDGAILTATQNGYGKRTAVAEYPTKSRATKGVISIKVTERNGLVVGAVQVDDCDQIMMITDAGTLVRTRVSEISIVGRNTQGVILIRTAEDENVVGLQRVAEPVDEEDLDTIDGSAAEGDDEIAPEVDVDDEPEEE

SMILES	LE DNA Gyrase S. aureus [1]	IC50 [1] [nM]	IC50 [2] [nM]	LE DNA Gyrase E. coli [2]	IC50 [3] [nM]	LE Topo IV E. coli [3]	MIC [4, 13] [µM]	MIC [4, 14] [µg/mL]	MIC [5] [µg/mL]	MIC [6, 15] [µM]	MIC [6, 16] [µg/mL]	MIC [7] [µg/mL]	MIC [8] [µg/mL]	MIC [9] [µg/mL]	MIC [10] [µg/mL]	MIC [11] [µg/mL]	MIC [12] [µg/mL]
COc1ccc2nccc(CCN3CCC(NCc4cnn(C(C)C)c4)CC3)c2n1 [Compound 9, N-((1-Isopropyl-1H-pyrazol-4-yl)methyl)-1-(2-(6-methoxy-1,5-naphthyridin-4-yl)ethyl)piperidin-4-amine]	0.31	160 ± 10	2950 ± 560	0.25	230	0.30	0.31	0.125	1 (≈ 2.45 µM)	19.6	8	8 (≈ 19.6 µM)	2 (≈ 4.9 µM)	4 (≈ 9.79 µM)	64 (≈ 157 µM)	0.5 (≈ 1.22 µM)	0.25 (≈ 0.612 µM)
C=CCn1cc(CNC2CCN(CCc3ccnc4ccc(OC)nc34)CC2)cn1 [Compound 10, N-((1-Allyl-1H-pyrazol-4-yl)methyl)-1-(2-(6-methoxy-1,5-naphthyridin-4-yl)ethyl)piperidin-4-amine]	0.27	1100 ± 170	16700 ± 930	0.22	280 ± 10	0.30	4.92	2	4 (≈ 9.84 µM)	39.4	16	16 (≈ 39.4 µM)	4 (≈ 9.84 µM)	8 (≈ 19.7 µM)	128 (≈ 315 µM)	8 (≈ 19.7 µM)	≤ 1
COc1ccc2nccc(CCN3CCC(NCc4ccccc4)CC3)c2n1 [Compound 11]	0.29	–	40600 ± 1970	0.21	2040 ± 200	0.28	10.6	4	8 (≈ 21.2 µM)	170	64	64 (≈ 170 µM)	32 (≈ 85 µM)	32 (≈ 85 µM)	> 128	32 (≈ 85 µM)	8 (≈ 21.2 µM)
COc1ccc2nccc(CCN3CCC(NCc4ccc(F)cc4)CC3)c2n1 [Compound 12]	0.30	–	17000 ± 1690	0.23	280 ± 30	0.31	2.54	1	4 (≈ 10.1 µM)	81.1	32	16 (≈ 40.6 µM)	8 (≈ 20.3 µM)	8 (≈ 20.3 µM)	128 (≈ 324 µM)	1 (≈ 2.53 µM)	2 (≈ 5.07 µM)
COc1ccc2nccc(CCN3CCC(NCc4ccc(CO)cc4)CC3)c2n1 [Compound 16]	0.24	4390 ± 550	56600 ± 3320	0.19	1210 ± 50	0.27	9.84	4	4 (≈ 9.84 µM)	315	128	128 (≈ 315 µM)	32 (≈ 78.7 µM)	32 (≈ 78.7 µM)	> 128	32 (≈ 78.7 µM)	32 (≈ 78.7 µM)

— PMC8300687, “A Fine-Tuned Lipophilicity/Hydrophilicity Ratio Governs Antibacterial Potency and Selectivity of Bifurcated Halogen Bond-Forming NBTIs” (Antibiotics, 2021)
